This is an account of results in patent US10570104B2, “Metabolically programmed metal chelators and uses thereof” (University of Florida Research Foundation, Incorporated, priority 2015, dated 2020).

The conditions of series [1]: cited from earlier work.
Series [2] is described as follows: log Papp, octanol/TRIS buffer pH 7.4, shake flask direct method. It is filed as physicochemical. The note with it: not told. The text has this:
The redesign of 2 was predicated on the observation that both ligands 2 and 3 were orally active iron chelators in rodents and primates (Table 1), and that when the 4′-(OH) of 2 was methylated, providing (S)-4,5-dihydro-2-(2-hydroxy-4-methoxyphenyl)-4-methyl-4-thiazolecarboxylic acid^43 [(S)-4′-(CH3O)-DADFT, 4], there was a remarkable enhancement in both ICE and lipophilicity (log Papp). The log Papp data are expressed as the log of the fraction of the chelator seen in the octanol layer; measurements were done in TRIS buffer, pH 7.4, using a “shake flask” direct method.^49 The more negative the log Papp, the less chelator is in the octanol phase, the less lipophilic. Unfortunately, the increase in ICE of 4 came with a concomitant increase in toxicity.^50 Thus, the delicate balance between the increase in ICE and toxicity with enhanced lipophilicity needed to be understood and exploited.

For series [3] the following is noted: po, 300 μmol/kg; historical; cited from earlier work.
The conditions of series [4]: po, 150 μmol/kg; historical; cited from earlier work.
For series [5] the following is noted: for Rat ICE (%): 300 μmol/kg, monosodium salt.
Protocol: Sample collection and handling are as previously described.^38,40
Drug Preparation and Administration. In the iron clearing experiments, the rats were given 8-14 orally at a dose of 300 μmol/kg. […] The chelators were administered as their monosodium salts (prepared by the addition of 1 equiv of NaOH to a suspension of the free acid in distilled water).
Calculation of Chelator Iron Clearing Efficiency (ICE). The term “ICE” is used as a measure of the amount of iron excretion induced by a chelator. The ICE, expressed as a percent, is calculated as (ligand-induced iron excretion/theoretical iron excretion)×100. […] The theoretical iron outputs of the chelators were generated on the basis of a 2:1 ligand:iron complex. The efficiencies in the rats and monkeys were calculated as set forth elsewhere.^37 Data are presented as the mean±the standard error of the mean; p-values were generated via a one-tailed Student's t-test in which the inequality of variances was assumed, and a p-value of <0.05 was considered significant.
Series [6] is described as follows: Chelator-induced iron clearance (ICE) in iron-overloaded Cebus apella primates. It is filed as in vivo, Cebus apella monkeys. The note with it: 75 μmol/kg, monosodium salt. The protocol: Iron Loading of Cebus apella Monkeys. The monkeys (3.5-6.5 kg) were iron overloaded with intravenous iron dextran as specified in earlier publications to provide about 500 mg of iron per kg of body weight; the serum transferrin iron saturation rose to between 70 and 80%.^38,40 At least 20 half-lives, 60 days, elapsed before any of the animals were used in experiments evaluating iron-chelating agents.
Primate Fecal and Urine Samples. Fecal and urine samples were collected at 24 hours intervals and processed as described previously^38,40,74 Briefly, the collections began 4 days prior to the administration of the test drug and continued for an additional 5 days after the drug was given. Iron concentrations were determined by flame absorption spectroscopy as presented in other publications.^38′^40
Drug Preparation and Administration.
Calculation of Chelator Iron Clearing Efficiency (ICE).

Series [7] is described as follows: Tissue distribution/metabolism of chelators in rats given sc (HPLC). The series is classed as in vivo, Sprague-Dawley rats. As to the method:
Collection of Chelator Tissue Distribution Samples from Rodents. Male Sprague-Dawley rats (250-350 g) were given a single subcutaneously injection of the monosodium salts of 8 and 11 prepared as described above at a dose of […]. At times 0.5, 1, 2, 4 and 8 hours after dosing (n=3 rats per time point), the animals were euthanized by exposure to CO2 gas. Blood was obtained via cardiac puncture into vacutainers containing sodium citrate. The blood was centrifuged, and the plasma was separated for analysis. The liver, kidney, heart, and pancreas were removed from the animals and frozen.
Tissue Analytical Methods. Tissue samples of animals treated with 8 were prepared for HPLC analysis by homogenizing them in H2O at a ratio of 1:1 (w/v). Then, as a rinse, CH3OH at a ratio of 1:3 (w/v) was added, and the mixture was stored at −20° C. for 30 min. This homogenate was centrifuged. The supernatant was diluted with H2O, vortexed, and filtered with a 0.2 μm membrane. Analytical separation was performed on a Supelco Discovery RP Amide C16 HPLC system with UV detection at 310 nm as described previously.^44,75 Mobile phase and chromatographic conditions were as follows: solvent A, 5% CH3CN/95% buffer (25 mM KH2PO4+2.5 mM 1-octanesulfonic acid, pH 3.0); solvent B, 60% CH3CN/40% buffer.
Tissue samples of animals treated with 11 were prepared for HPLC analysis by homogenizing them in 0.5 N HClO4 at a ratio of 1:3 (w/v). Then, as a rinse, CH3OH at a ratio of 1:3 (w/v) was added, and the mixture was stored at −20° C. for 30 min. This homogenate was centrifuged. The supernatant was diluted with 95% buffer (25 mM KH2PO4, pH 3.0)/5% CH3CN, vortexed, and filtered with a 0.2 μm membrane. Analytical separation was performed on a Supelco Ascentis Express RP-Amide HPLC system with UV detection at 310 nm as described previously. Mobile phase and chromatographic conditions were as for 8.
Ligand concentrations were calculated from the peak area fitted to calibration curves by nonweighted least-squares linear regression with Shimadzu Class-VP 7.4 software.

“Also recorded” adds a separate entry of the source. Where two headings read alike, the source gives them in different places.

As to `CCCCOc1ccc(C2=N[C@@H](C(=O)O)CS2)c(O)c1` [4′-butoxy analogue of 2, (S)-2-(4-butoxy-2-hydroxyphenyl)-4,5-dihydro-4-thiazolecarboxylic acid], the time of deaths in series [1] (same scenario as with 10) was at most 24 h.
`C[C@]1(C(=O)O)CSC(c2ccccc2O)=N1` [Compound 1a, (S)-4,5-dihydro-2-(2-hydroxyphenyl)-4-methyl-4-thiazolecarboxylic acid]: in series [1] (in vivo), the “gastrointestinal toxicity” value was “serious gastrointestinal (GI) problems” and the “nephrotoxicity” value is listed as “not overtly nephrotoxic”.
For the molecule `C[C@]1(C(=O)O)CSC(c2cccc(O)c2O)=N1` [Compound 3, (S)-2-(2,3-dihydroxyphenyl)-4,5-dihydro-4-methyl-4-thiazolecarboxylic acid], the “Log Papp” value in series [2] was −1.17. In series [3], the “Rodent ICE (%)” value was 4.6 ± 0.9%. The “Primate ICE (%)” value in series [4] is 23.1 ± 5.9%.
Turning to `C[C@]1(C(=O)O)CSC(c2ccc(OCCOCCO)cc2O)=N1` [Compound 8, (S)-4,5-dihydro-2-[2-hydroxy-4-(5-hydroxy-3-oxapentyloxy)phenyl]-4-methyl-4-thiazolecarboxylic acid], the “Log Papp” value in series [2] is recorded as −0.53. The “Rat ICE (%)” value in series [5] (po) turned out to be 15.4 ± 5.6%. The “Cebus ICE (%)” value in series [6] (po) came out at 9.8±3.4%. For the same molecule, the “share of total drug concentration” value in series [7] (sc 7, plasma, 0.5 hour) came out at 5%. Further, the “share of drug (parent+metabolite)” value in series [7] (sc 8, 300 μmol/kg, liver, 0.5 hour) is recorded as 53%. Further, in series [7] (sc 8, 300 μmol/kg, liver, 8 hours), the “detection in liver” value was “very little parent alcohol 8”. Further, the “proportion of 8 converted to 9” value in series [7] (sc 8, 300 μmol/kg, plasma, 0.5 hour post drug) is about 60%. For the same molecule, the “detection in plasma” value in series [7] (sc 8, 300 μmol/kg, plasma, 8 hour) is “Neither the parent 8 nor the metabolite 9 was found at the 8 hour time point”. Moreover, the “conversion of 8 to 9” value in series [7] (sc 8, 300 μmol/kg, tissues) is “very efficiently oxidized to carboxylic acid 9; also recorded: very efficiently converted to acid 9; also recorded: very quickly oxidized to 9”.
On to `COCCCCCCOc1ccc(C2=N[C@@](C)(C(=O)O)CS2)c(O)c1` [Compound 10, (S)-4,5-dihydro-2-[2-hydroxy-4-(6-methoxyhexyloxy)phenyl]-4-methyl-4-thiazolecarboxylic acid], for which the “Log Papp” value in series [2] amounted to 0.95. Moreover, the “time of death post drug” value in series [5] (po 300 μmol/kg, bile duct-cannulated rats, one animal) was “about 22 hours”. Also, the “drug-induced iron excretion, peak” value in series [5] (po 300 μmol/kg, 6 hours post drug) is listed as 300 μg/kg of iron. For the same molecule, the drug-induced iron excretion in series [5] (po 300 μmol/kg, 24 hours post dosing) is on record as 80 μg/kg of iron. Moreover, the “Rat ICE (%)” value in series [5] (po) is 15.8 ± 3.7%. For the same molecule, the “overt toxicity” value in series [5] (rats, po 300 μmol/kg, single dose) is given as “profoundly toxic; also recorded: very toxic; also recorded: Toxic in Rats”.
As to `C[C@]1(C(=O)O)CSC(c2ccc(OCCCCCC(=O)O)cc2O)=N1` [Compound 12, (S)-4,5-dihydro-2-[2-hydroxy-4-(5-carboxypentyloxy)phenyl]-4-methyl-4-thiazolecarboxylic acid], the “Log Papp” value in series [2] is listed as −1.90. The “Rat ICE (%)” value worked out at 8.8 ± 1.8% in series [5] (po) and 6.5 ± 1.5% in series [5] (sc). Further, the “Cebus ICE (%)” value in series [6] (po) was 10.6±4.0%; in series [6] (sc) it was 18.8±8.7%. Also, the “detection in heart” value in series [7] (sc 11, heart) is “not found in the cardiac tissue at any of the time points”. In addition, the “detection in kidney” value in series [7] (sc 11, kidney) was “found at 0.5 and 1 hour post drug”. For the same molecule, the “detection in liver” value in series [7] (sc 11, liver) is “not detected in the liver 2, 4, or 8 hours post dosing”. The “share of total drug (parent+metabolites)” value in series [7] (sc 11, liver, 0.5 hour) is reported as 11%; in series [7] (sc 11, liver, 1 hour) it was 2%. For the same molecule, the “detection in pancreas” value in series [7] (sc 11, pancreas) is “not found at any of the time points”. For the same molecule, the “detection in plasma” value in series [7] (sc 11, plasma) is reported as “None of the first oxidation product of alcohol 11, the dicarboxylic acid 12, was detected in the plasma”.
In the case of `C[C@]1(C(=O)O)CSC(c2ccc(OCCCC(=O)O)cc2O)=N1` [Compound 13, (S)-4,5-dihydro-2-[2-hydroxy-4-(3-carboxypropyloxy)phenyl]-4-methyl-4-thiazolecarboxylic acid], in series [2], the “Log Papp” value is recorded as −2.21. Moreover, the “Rat ICE (%)” value came out at 3.7 ± 1.7% in series [5] (po) and 4.3 ± 1.1% in series [5] (sc). Further, the “Cebus ICE (%)” value in series [6] (po) was 5.4±1.5%; in series [6] (sc) it was 18.1±7.5%. In addition, the “detection in heart” value in series [7] (sc 11, heart) is given as “not found in the later time points”. For the same molecule, the tissue concentration in series [7] (sc 11, heart, 0.5 hour) is listed as about 46 nmol/g wet weight; in series [7] (sc 11, heart, 1 hour) it was about 46 nmol/g wet weight; in series [7] (sc 11, kidney, 0.5 hour), about 300 nmol/g wet weight; in series [7] (sc 11, kidney, 1 hour), about 300 nmol/g wet weight; in series [7] (sc 11, pancreas, 0.5 hour), 19 nmol/g wet weight; in series [7] (sc 11, pancreas, 1 hour), 23 nmol/g wet weight. Moreover, in series [7] (sc 11, kidney), the “detection in kidney” value was “not detectable 8 hours post dosing”. Also, in series [7] (sc 11, liver), the “detection in liver” value is recorded as “no 13 remained in the liver”. In addition, the “share of total drug (parent+metabolites)” value in series [7] (sc 11, liver, 0.5 hour) is 71%; in series [7] (sc 11, liver, 1 hour), 59%. Moreover, the “share of total drug (metabolites)” value was 66% in series [7] (sc 11, liver, 2 hours) and 70% in series [7] (sc 11, liver, 4 hours). The “share of total (parent+metabolites)” value in series [7] (sc 11, plasma, 0.5 hour) amounted to 62%; in series [7] (sc 11, plasma, 4 hours), 50%; in series [7] (sc 11, plasma, 8 hours) it was 65%.
Take `C[C@]1(C(=O)O)CSC(c2ccc(OCC(=O)O)cc2O)=N1` [Compound 14, (S)-4,5-dihydro-2-[2-hydroxy-4-(carboxymethoxy)phenyl]-4-methyl-4-thiazolecarboxylic acid]: the “Log Papp” value in series [2] is −1.98. The “Rat ICE (%)” value in series [5] (po) was 2.6 ± 1.6%; in series [5] (sc) it was 6.0 ± 1.9%. In addition, the “Cebus ICE (%)” value in series [6] (po) is given as 3.0±2.7%; in series [6] (sc), 15.9±4.3%. Further, the “detection in heart” value in series [7] (sc 11, heart) is given as “not found in the 2-8 hour time points”. The tissue concentration came to 17 nmol/g wet weight in series [7] (sc 11, heart, 0.5 hour); 23 nmol/g wet weight in series [7] (sc 11, heart, 1 hour); 156 nmol/g wet weight in series [7] (sc 11, kidney, 0.5 hour); 201 nmol/g wet weight in series [7] (sc 11, kidney, 1 hour); 161 nmol/g wet weight in series [7] (sc 11, kidney, 2 hours); 5 nmol/g wet weight in series [7] (sc 11, kidney, 8 hours). Also, the “detection in liver” value in series [7] (sc 11, liver) is on record as “only trace amounts of 14 were detected”. Besides, the “share of total drug (parent+metabolites)” value in series [7] (sc 11, liver, 0.5 hour) is listed as 18%; in series [7] (sc 11, liver, 1 hour), 39%. In series [7] (sc 11, pancreas), the “detection in pancreas” value was “Trace amounts of 14 were found at 0.5, 1, and 2 hours post dosing”. Moreover, the “share of total (parent+metabolites)” value is given as 16% in series [7] (sc 11, plasma, 0.5 hour); 50% in series [7] (sc 11, plasma, 4 hours); “the remainder” in series [7] (sc 11, plasma, 8 hours).
